From the supplement of paper PMC10307832

Assays:
Assay in all cases: relative viability (nuclei count vs DMSO), 5 days (fraction); higher = more cells survive
kb NB 142-70 + OSI-027 = compound: C1CSC2=C(C(=O)N1)SC3=C2C=C(C=C3)O [kb NB 142-70] + COc1cccc2cc(-c3nc([C@H]4CC[C@H](C(=O)O)CC4)n4ncnc(N)c34)[nH]c12 [OSI-027] (partner 0.5 µM)
Procedure, shortened: (§1)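 The day after seeding in 1536-well plates, lung cancer cell lines were treated by pin tool with a single drug, or with a fixed anchor-drug dose together with five library-drug doses (not always all listed) in √10 steps. After 5 days, a combined fix-and-stain solution (final 0.05% Triton X-100, 1% formaldehyde, 1 ug/ml Hoechst) was added. Nuclei counted on 4× images gave relative viability as treated counts over vehicle counts, reported as the median of duplicate plates.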

[1] = compound: C1CSC2=C(C(=O)N1)SC3=C2C=C(C=C3)O [kb NB 142-70] + Cc1cc(Nc2cc(N3CCN(C)CC3)nc(Sc3ccc(NC(=O)C4CC4)cc3)n2)n[nH]1 [Tozasertib] (partner 0.1 µM)
Procedure, shortened: as §1

kb NB 142-70 + AZD7762 = compound: C1CSC2=C(C(=O)N1)SC3=C2C=C(C=C3)O [kb NB 142-70] + NC(=O)Nc1cc(-c2cccc(F)c2)sc1C(=O)N[C@H]1CCCNC1 [AZD7762] (partner 0.2 µM)
Procedure, shortened: as §1

[2] = compound: NCC(=O)Nc1ccc(-n2nc(C(F)(F)F)cc2-c2ccc3c(ccc4ccccc43)c2)cc1 + CCNC(=O)c1noc(-c2cc(C(C)C)c(O)cc2O)c1-c1ccc(CN2CCOCC2)cc1 [Luminespib] (partner 0.01 µM)
Procedure, shortened: as §1

[3] = compound: NCC(=O)Nc1ccc(-n2nc(C(F)(F)F)cc2-c2ccc3c(ccc4ccccc43)c2)cc1 + Cc1nc(NC(=O)N2CCC[C@H]2C(N)=O)sc1-c1ccnc(C(C)(C)C(F)(F)F)c1 [Alpelisib] (partner 2 µM)
Procedure, shortened: as §1

Cell Line	relative viability (kb NB 142-70 + OSI-027; first compound 0.1 µM)	relative viability (kb NB 142-70 + OSI-027; first compound 1 µM)	relative viability (kb NB 142-70 + OSI-027; first compound 3.162 µM)	relative viability ([1]; first compound 0.1 µM)	relative viability ([1]; first compound 1 µM)	relative viability ([1]; first compound 3.162 µM)	relative viability (kb NB 142-70 + AZD7762; first compound 0.1 µM)	relative viability (kb NB 142-70 + AZD7762; first compound 1 µM)	relative viability (kb NB 142-70 + AZD7762; first compound 3.162 µM)	relative viability ([2]; first compound 0.02 µM)	relative viability ([2]; first compound 0.06325 µM)	relative viability ([2]; first compound 0.2 µM)	relative viability ([2]; first compound 0.6325 µM)	relative viability ([2]; first compound 2 µM)	relative viability ([3]; first compound 0.02 µM)	relative viability ([3]; first compound 0.06325 µM)	relative viability ([3]; first compound 0.2 µM)	relative viability ([3]; first compound 0.6325 µM)	relative viability ([3]; first compound 2 µM)
NCI-H1648	0.253	0.217	0.237	0.396	0.524	0.398	0.585	0.811	0.933	–	–	–	–	–	–	–	–	–	–
SK-MES-1	0.653	0.676	0.27	0.867	0.85	0.221	–	–	–	0.828	0.904	0.897	0.842	0.802	1.02	0.981	0.925	0.816	0.919
HCC-366	1.04	0.894	0.742	0.122	0.176	0.118	0.277	0.572	0.734	–	–	–	–	–	0.32	0.432	0.489	0.435	0.322
201T	0.723	0.714	0.653	0.875	0.974	1.03	0.603	0.723	0.676	1.1	1.07	1.11	1.03	1.06	1.08	1.05	1.04	1	1.05
HCC-827	0.775	0.759	0.775	0.418	0.429	0.367	0.233	0.195	0.255	0.679	0.852	0.59	0.731	0.684	1.02	1.08	0.957	0.944	1.02
NCI-H647	0.575	0.568	0.601	0.274	0.332	0.426	0.412	0.516	0.537	0.26	0.151	0.146	0.181	0.252	1.31	1.15	1.21	1.12	0.982
NCI-H2023	0.485	0.417	0.258	0.367	0.358	0.276	–	–	–	0.681	0.906	0.972	0.739	0.758	0.606	0.625	0.609	0.577	0.596
NCI-H520	0.262	0.226	0.25	0.45	0.517	0.37	–	–	–	0.193	0.179	0.198	0.239	0.229	0.979	0.982	1.04	0.92	0.896
RERF-LC-KJ	0.566	0.643	0.593	0.445	0.486	0.445	1.02	0.985	1.04	1.32	1.29	1.27	1.19	1.1	0.848	0.899	0.734	0.883	0.937
A-427	0.524	0.469	0.408	0.252	0.221	0.195	0.783	0.93	1.08	0.886	0.849	1.06	0.864	0.996	1.05	1.09	1.14	1.14	1.05
NCI-H441	0.556	0.58	0.277	0.663	0.581	0.302	1.06	1.23	0.863	0.334	0.391	0.347	0.296	0.397	0.906	0.715	0.869	1.01	0.654
NCI-H1703	–	–	–	–	–	–	0.125	0.134	0.134	–	–	–	–	–	0.377	0.306	0.343	0.353	0.385
NCI-H1792	0.705	0.684	0.912	–	–	–	0.803	0.907	0.857	0.337	0.583	0.552	0.585	0.484	0.67	0.859	0.77	0.751	0.736
Calu-6	–	–	–	–	–	–	–	–	–	–	–	–	–	–	1.05	1.07	1.15	0.943	0.913
SK-LU-1	0.355	0.305	0.219	0.339	0.282	0.182	–	–	–	0.208	0.182	0.193	0.206	0.18	0.913	1.08	1.3	0.891	0.977
PC-3 [JPC-3]	0.763	0.835	0.737	0.923	0.94	0.773	0.832	0.807	0.773	0.66	0.709	0.728	0.724	0.776	1.04	1.07	1.05	1.07	1.13
EMC-BAC-2	0.361	0.422	0.338	0.303	0.302	0.261	1.13	1.15	0.731	1.11	1.23	1.18	1.17	1.18	0.742	0.75	0.764	0.772	0.715
LK-2	0.19	0.163	0.163	0.168	0.167	0.189	0.308	0.319	0.329	0.173	0.195	0.217	0.173	0.208	1.04	1.04	0.979	1.14	0.969
NCI-H2126	0.791	0.629	0.674	0.805	0.858	0.823	0.925	1.03	1.08	0.904	0.981	0.871	0.942	0.943	0.784	0.774	0.724	0.765	0.788

Cell Line	relative viability (kb NB 142-70 + OSI-027; first compound 0.1 µM)	relative viability (kb NB 142-70 + OSI-027; first compound 1 µM)	relative viability (kb NB 142-70 + OSI-027; first compound 3.162 µM)	relative viability ([1]; first compound 0.1 µM)	relative viability ([1]; first compound 1 µM)	relative viability ([1]; first compound 3.162 µM)	relative viability (kb NB 142-70 + AZD7762; first compound 0.1 µM)	relative viability (kb NB 142-70 + AZD7762; first compound 1 µM)	relative viability (kb NB 142-70 + AZD7762; first compound 3.162 µM)	relative viability ([2]; first compound 0.02 µM)	relative viability ([2]; first compound 0.06325 µM)	relative viability ([2]; first compound 0.2 µM)	relative viability ([2]; first compound 0.6325 µM)	relative viability ([2]; first compound 2 µM)	relative viability ([3]; first compound 0.02 µM)	relative viability ([3]; first compound 0.06325 µM)	relative viability ([3]; first compound 0.2 µM)	relative viability ([3]; first compound 0.6325 µM)	relative viability ([3]; first compound 2 µM)
SW 1573	0.618	0.47	0.266	0.153	0.182	0.146	–	–	–	0.252	0.151	0.151	0.677	0.209	0.782	0.741	0.807	0.75	0.765
NCI-H2009	0.678	0.68	0.395	0.75	0.649	0.48	–	–	–	1.1	0.932	1.09	1.03	1.03	1.21	1.11	1.19	1.1	1.16
COR-L23	0.797	0.728	0.279	0.237	0.157	0.134	–	–	–	0.599	0.652	0.772	0.57	0.757	0.895	0.822	0.898	0.722	0.745
HCC-78	0.379	0.375	0.34	0.389	0.468	0.411	0.616	0.629	0.684	–	–	–	–	–	0.361	0.422	0.376	0.306	0.397
NCI-H1299	–	–	–	–	–	–	–	–	–	–	–	–	–	–	1.05	1.11	1.09	1.08	1.03
NCI-H1650	0.612	0.755	0.483	0.47	0.334	0.339	–	–	–	0.202	0.229	–	0.166	0.199	–	–	–	–	–
COR-L 105	0.821	0.734	0.674	0.319	0.287	0.255	–	–	–	0.915	0.78	1.01	0.704	1.15	0.911	1.12	1.26	0.896	0.969
ChaGo-K-1	0.631	0.543	0.488	0.244	0.246	0.219	0.896	0.873	0.888	0.614	0.501	0.54	0.548	0.567	–	–	–	–	–
NCI-H2228	0.575	0.483	0.317	0.254	0.217	0.146	–	–	–	0.144	0.16	0.177	0.154	0.16	0.785	0.84	0.669	0.689	0.921
SW 900	0.552	0.478	0.295	0.608	0.472	0.407	0.663	0.758	0.879	–	0.187	0.188	0.209	0.169	–	–	–	–	–
NCI-H661	0.723	0.717	0.61	0.337	0.356	0.353	–	–	–	0.932	0.907	0.899	0.925	0.906	0.82	0.626	0.693	0.758	0.94
NCI-H1563	0.773	0.739	0.752	–	–	–	–	–	–	0.557	0.523	0.588	0.526	0.554	0.969	0.837	0.962	0.928	1.05
A549	–	–	–	–	–	–	–	–	–	–	–	–	–	–	0.714	0.84	0.898	0.747	0.657
NCI-H2342	0.649	0.612	0.638	0.447	0.614	0.544	0.548	0.49	0.518	0.626	0.875	0.75	0.75	0.688	–	–	–	–	–
NCI-H1623	0.399	0.375	0.404	0.441	0.433	0.379	–	–	–	0.552	0.425	0.457	0.661	0.558	–	–	–	–	–
NCI-H522	0.737	0.658	0.608	0.521	0.565	0.61	0.959	0.753	0.746	0.97	1.05	1.24	1.19	1.37	–	–	–	–	–
IA-LM	–	–	–	–	–	–	–	–	–	–	–	–	–	–	0.776	0.715	0.937	0.784	0.782
EBC-1	–	–	–	–	–	–	–	–	–	–	–	–	–	–	0.785	0.785	0.962	0.835	0.834
